Values of other authors, collected in patent publication US20040092519A1, “New treatment for hot flashes” (priority 2002, published 2004).

How the values were obtained:
[1] = transdermal; some patients
[2] = low doses; men and women

| SMILES | side effects [1] | frequency of hot flashes [2] |
| --- | --- | --- |
| Clc1cccc(Cl)c1N=C1NCCN1 [clonidine] | drowsiness, fatigue, and symptoms of low blood pressure | – |
| CC(=O)O[C@]1(C(C)=O)CC[C@H]2[C@@H]3C=C(C)C4=CC(=O)CC[C@]4(C)[C@H]3CC[C@@]21C [megestrol acetate] | – | reduce the frequency of hot flashes |
